System: SREBP1
Assay: Immunofluorescence of SREBP1 nuclear accumulation
Type: cell-based, human
Settings: Huh7 cells, peptide 15 μM, IGF1 100 ng/mL 8 h
Procedure: Figure 1 The Insig1/2 loop 1 peptide binds to S90‐phosphorylated PCK1 and blocks PCK1‐mediated SREBP activation and tumor cell proliferation. Immunoblotting analyses were performed using the indicated antibodies; representative results from three independent experiments are shown (IP, immunoprecipitation; WB, western blot). a) Huh7 cells expressing various Insig1 (top) or Insig2 (bottom) truncation mutants were treated with or without IGF1 (100 ng mL^−1) for 1 h. b,c) Biolayer interferometry assays (Sartorius Octet) were employed to measure the binding affinity of Insig1/2 loop 1 peptide to GST‐PCK1 or GST‐PCK1 pS90 proteins. […] Statistical significance was determined by one‐way analysis of variance (ANOVA). g) Following pretreatment with Insig1/2 loop 1 peptide (15 µM) and IGF1 stimulation (100 ng mL^−1, 8 h), Huh7 cells were subjected to immunofluorescence analysis (scale bar: 10 µm). h) Quantitative PCR analysis of SREBP1 target gene GPAM in Huh7 cells pretreated with Insig1/2 loop 1 peptide (15 µM) and stimulated with IGF1 (100 ng mL^−1) for 10 h. […] Statistical significance was determined by one‐way analysis of variance (ANOVA). i) Quantitative PCR analysis of SREBP1 target gene FASN in Huh7 cells pretreated with Insig1/2 loop 1 peptide (15 µM) and stimulated with IGF1 (100 ng mL^−1) for 10 h. […]

RKKRRQRRRLYPCIDSHLGEPHKFKRE [Insig1/2 loop 1 peptide]
nuclear accumulation of SREBP1: markedly inhibited

Reference: PMC12677653, “Inhibition of Tumor Lipogenesis and Growth by Peptide‐Based Targeting of SREBP Activation” (Advanced Science, 2025)
